From US20210085640A1, “ACYLATED CATECHIN POLYPHENOLS AND METHODS OF THEIR USE FOR THE TREATMENT OF CANCER” (Flagship Pioneering Innovations V, Inc., priority 2018, published 2021)

Experiments:
Format in all cases: cell-based
A-431 skin cancer cells = assay: Cancer cell survival (CellTiter-Glo), A-431; design: Cell survival at given concentration: unit not given here; conditions: A-431 cells, 72 h
Procedure: (§1) The cells were prepared as follows. Cells were harvested during logarithmic growth, counted, and adjusted to 4.44×10^4 cells/mL with culture media. 90 μL of suspended cells were added to wells of 96-well plates for a final cell count of 4×10^3 cells/well. The plates were incubated overnight at 37 C with 5% CO2 overnight.
(§2) The test compounds were assayed as follows. Compound solutions were mixed at 10× final concentrations in cell media: 1 μM-10 mM (fatty acids) or 100 nM-1 mM (all other compounds). […] of solution was added to each well of cells in triplicate for each concentration. Well plates were incubated for 72 h at 37 C with 5% CO2 and then assayed with CellTiter-Glo by adding 50 μL of CTG solution to each well. Cells were lysed by shaking on an orbital shaker for 5 min. Plates were incubated at room temperature for 20 min and then each well's luminescence was measured. The surviving percentage of cells was determined as:
(§3) Survival %=(LumTest article−LumMedium control)/(LumNone treated−LumMedium control)[…]
(§4) Cytotoxicity was assessed at nine concentration levels for each compound and the 50% inhibition concentration (IC50) determined for each compound.

A549 lung cancer cells = assay: Cancer cell survival (CellTiter-Glo), A549; conditions: 72 h
Procedure: as §1, §2, §3, §4

[1] = tested on: HCT 116 colorectal cancer cells; assay: Cancer cell survival (CellTiter-Glo), HCT 116; conditions: HCT 116 cells, 72 h
Procedure: as §1, §2, §3, §4

[2] = tested on: PC-3 prostate cancer cells; assay: Cancer cell survival (CellTiter-Glo), PC-3; conditions: PC-3 cells, 72 h
Procedure: as §1, §2, §3, §4

[3] = tested on: Daudi lymphoma cancer cells; assay: Cancer cell survival (CellTiter-Glo), Daudi; conditions: 72 h
Procedure: as §1, §2, §3
Activity was assessed at nine concentration levels for each compound and the 50% inhibition concentration (IC50) determined for each compound.

AGS stomach cancer cells = assay: Cancer cell survival (CellTiter-Glo), AGS; design: Cell survival at given concentration: unit not given here
Procedure: as §1, §2, §3, §4

T24 bladder cancer cells = assay: Cancer cell survival (CellTiter-Glo), T24; conditions: 72 h
Procedure: as §1, §2, §3
Efficacy was assessed at nine concentration levels for each compound and the 50% inhibition concentration (IC50) determined for each compound.

MCF7 breast cancer cells = assay: Cancer cell survival (CellTiter-Glo), MCF7; conditions: 72 h
Procedure: as §1, §2, §3, §4

Question: Cc1c(C)c2c(c(C)c1O)CC[C@@](C)(CCC[C@H](C)CCC[C@H](C)CCCC(C)C)O2 [alpha-tocopherol] was tested. Which “Cell survival at given concentration” value (A-431 skin cancer cells; 101 nM) did it give?
Answer: Its value is 1.00.

Question: And the “Cell survival at given concentration” value (A-431 skin cancer cells; 318 nM)?
Answer: The value was 0.99.

Question: What about the “Cell survival at given concentration” value (A-431 skin cancer cells; 1 μM) of the same molecule?
Answer: The value was 1.01.

Question: What about the “Cell survival at given concentration” value (A-431 skin cancer cells; 3 μM) of the same molecule?
Answer: Its value is 1.01.

Question: And the “Cell survival at given concentration” value (A-431 skin cancer cells; 10 μM)?
Answer: Its value is 1.03.

Question: What about the “Cell survival at given concentration” value (A-431 skin cancer cells; 32 μM) of the same molecule?
Answer: Its value is 1.01.

Question: And the “Cell survival at given concentration” value (A-431 skin cancer cells; 100 μM)?
Answer: Its value is 1.02.

Question: What about the “Cell survival at given concentration” value (A-431 skin cancer cells; 316 μM) of the same molecule?
Answer: The value was 1.01.

Question: What about the “Cell survival at given concentration” value (A-431 skin cancer cells; 1000 μM) of the same molecule?
Answer: The value was 1.04.

Question: And the “Cell survival at given concentration” value (A549 lung cancer cells; 101 nM)?
Answer: The value was 1.03.

Question: What about the “Cell survival at given concentration” value (A549 lung cancer cells; 318 nM) of the same molecule?
Answer: The value was 1.05.

Question: And the “Cell survival at given concentration” value (A549 lung cancer cells; 1 μM)?
Answer: The value was 1.06.

Question: What about the “Cell survival at given concentration” value (A549 lung cancer cells; 3 μM) of the same molecule?
Answer: The value was 1.04.

Question: And the “Cell survival at given concentration” value (A549 lung cancer cells; 10 μM)?
Answer: The value was 1.08.

Question: And the “Cell survival at given concentration” value (A549 lung cancer cells; 32 μM)?
Answer: Its value is 1.09.

Question: And the “Cell survival at given concentration” value (A549 lung cancer cells; 100 μM)?
Answer: The value was 1.08.

Question: What about the “Cell survival at given concentration” value (A549 lung cancer cells; 316 μM) of the same molecule?
Answer: The value was 1.07.

Question: And the “Cell survival at given concentration” value (A549 lung cancer cells; 1000 μM)?
Answer: Its value is 1.02.

Question: And the “Cell survival at given concentration” value ([1]; 101 nM)?
Answer: The value was 0.99.

Question: What about the “Cell survival at given concentration” value ([1]; 318 nM) of the same molecule?
Answer: Its value is 0.98.

Question: What about the “Cell survival at given concentration” value ([1]; 1 μM) of the same molecule?
Answer: Its value is 1.00.

Question: What about the “Cell survival at given concentration” value ([1]; 3 μM) of the same molecule?
Answer: Its value is 1.01.

Question: And the “Cell survival at given concentration” value ([1]; 10 μM)?
Answer: The value was 1.01.

Question: What about the “Cell survival at given concentration” value ([1]; 32 μM) of the same molecule?
Answer: Its value is 1.03.

Question: And the “Cell survival at given concentration” value ([1]; 100 μM)?
Answer: The value was 1.03.

Question: What about the “Cell survival at given concentration” value ([1]; 316 μM) of the same molecule?
Answer: The value was 0.98.

Question: And the “Cell survival at given concentration” value ([1]; 1000 μM)?
Answer: Its value is 0.97.

Question: And the “Cell survival at given concentration” value ([2]; 101 nM)?
Answer: Its value is 1.01.

Question: And the “Cell survival at given concentration” value ([2]; 318 nM)?
Answer: Its value is 0.99.

Question: What about the “Cell survival at given concentration” value ([2]; 1 μM) of the same molecule?
Answer: Its value is 1.04.

Question: And the “Cell survival at given concentration” value ([2]; 3 μM)?
Answer: The value was 1.00.

Question: And the “Cell survival at given concentration” value ([2]; 10 μM)?
Answer: Its value is 1.03.

Question: What about the “Cell survival at given concentration” value ([2]; 32 μM) of the same molecule?
Answer: The value was 1.00.

Question: And the “Cell survival at given concentration” value ([2]; 100 μM)?
Answer: Its value is 0.99.

Question: And the “Cell survival at given concentration” value ([2]; 316 μM)?
Answer: Its value is 1.02.

Question: What about the “Cell survival at given concentration” value ([2]; 1000 μM) of the same molecule?
Answer: Its value is 1.01.

Question: What about the “Cell survival at given concentration” value ([3]; 101 nM) of the same molecule?
Answer: The value was 0.98.

Question: And the “Cell survival at given concentration” value ([3]; 318 nM)?
Answer: The value was 0.99.

Question: What about the “Cell survival at given concentration” value ([3]; 1 μM) of the same molecule?
Answer: The value was 1.01.

Question: What about the “Cell survival at given concentration” value ([3]; 3 μM) of the same molecule?
Answer: Its value is 1.00.

Question: What about the “Cell survival at given concentration” value ([3]; 10 μM) of the same molecule?
Answer: Its value is 1.02.

Question: And the “Cell survival at given concentration” value ([3]; 32 μM)?
Answer: The value was 1.04.

Question: What about the “Cell survival at given concentration” value ([3]; 100 μM) of the same molecule?
Answer: Its value is 1.04.

Question: What about the “Cell survival at given concentration” value ([3]; 316 μM) of the same molecule?
Answer: Its value is 1.03.

Question: What about the “Cell survival at given concentration” value ([3]; 1000 μM) of the same molecule?
Answer: Its value is 1.02.

Question: What about the “Cell survival at given concentration” value (AGS stomach cancer cells; 101 nM) of the same molecule?
Answer: Its value is 1.03.

Question: What about the “Cell survival at given concentration” value (AGS stomach cancer cells; 318 nM) of the same molecule?
Answer: Its value is 1.03.

Question: What about the “Cell survival at given concentration” value (AGS stomach cancer cells; 1 μM, Table 10.1) of the same molecule?
Answer: Its value is 1.07.

Question: What about the “Cell survival at given concentration” value (AGS stomach cancer cells; 3 μM, Table 10.1) of the same molecule?
Answer: The value was 1.04.

Question: What about the “Cell survival at given concentration” value (AGS stomach cancer cells; 10 μM, Table 10.1) of the same molecule?
Answer: The value was 1.07.

Question: What about the “Cell survival at given concentration” value (AGS stomach cancer cells; 32 μM, Table 10.1) of the same molecule?
Answer: The value was 1.06.

Question: And the “Cell survival at given concentration” value (AGS stomach cancer cells; 100 μM, Table 10.1)?
Answer: The value was 1.09.

Question: What about the “Cell survival at given concentration” value (AGS stomach cancer cells; 316 μM) of the same molecule?
Answer: The value was 1.06.

Question: What about the “Cell survival at given concentration” value (AGS stomach cancer cells; 1000 μM) of the same molecule?
Answer: The value was 1.06.

Question: What about the “Cell survival at given concentration” value (T24 bladder cancer cells; 101 nM) of the same molecule?
Answer: Its value is 1.02.

Question: And the “Cell survival at given concentration” value (T24 bladder cancer cells; 318 nM)?
Answer: Its value is 1.01.

Question: And the “Cell survival at given concentration” value (T24 bladder cancer cells; 1 μM)?
Answer: The value was 0.96.

Question: What about the “Cell survival at given concentration” value (T24 bladder cancer cells; 3 μM) of the same molecule?
Answer: Its value is 1.00.

Question: What about the “Cell survival at given concentration” value (T24 bladder cancer cells; 10 μM) of the same molecule?
Answer: Its value is 0.99.

Question: And the “Cell survival at given concentration” value (T24 bladder cancer cells; 32 μM)?
Answer: The value was 1.06.

Question: And the “Cell survival at given concentration” value (T24 bladder cancer cells; 100 μM)?
Answer: Its value is 0.98.

Question: And the “Cell survival at given concentration” value (T24 bladder cancer cells; 316 μM)?
Answer: The value was 1.07.

Question: What about the “Cell survival at given concentration” value (T24 bladder cancer cells; 1000 μM) of the same molecule?
Answer: The value was 1.02.

Question: And the “Cell survival at given concentration” value (MCF7 breast cancer cells; 101 nM)?
Answer: Its value is 1.02.

Question: What about the “Cell survival at given concentration” value (MCF7 breast cancer cells; 318 nM) of the same molecule?
Answer: Its value is 1.02.

Question: And the “Cell survival at given concentration” value (MCF7 breast cancer cells; 1 μM)?
Answer: Its value is 1.04.

Question: What about the “Cell survival at given concentration” value (MCF7 breast cancer cells; 3 μM) of the same molecule?
Answer: The value was 1.05.

Question: And the “Cell survival at given concentration” value (MCF7 breast cancer cells; 10 μM)?
Answer: Its value is 1.05.

Question: And the “Cell survival at given concentration” value (MCF7 breast cancer cells; 32 μM)?
Answer: Its value is 1.04.

Question: What about the “Cell survival at given concentration” value (MCF7 breast cancer cells; 100 μM) of the same molecule?
Answer: Its value is 1.03.

Question: And the “Cell survival at given concentration” value (MCF7 breast cancer cells; 316 μM)?
Answer: The value was 1.02.

Question: What about the “Cell survival at given concentration” value (MCF7 breast cancer cells; 1000 μM) of the same molecule?
Answer: Its value is 1.01.
